Literature values in patent publication US7964610B2, “Buprenorphine derivatives and uses thereof” (Reckitt Benckiser Healthcare (UK) Limited, priority 2006, dated 2011).

CO[C@]12CCC3(C[C@@H]1[C@](C)(O)C(C)(C)C)[C@H]1Cc4ccc(O)c5c4[C@@]3(CCN1CC1CC1)[C@H]2O5 [buprenorphine]
bioavailability when taken orally (oral (swallowed)): ~5%
bioavailability when absorbed sublingually (sublingual): approximately fifty
